Earlier results, collected in US20070202158A1, “Methods Of Administering Water-Soluble Prodrugs Of Propofol For Extended Sedation” (MGI GP, Inc., priority 2003, published 2007).

Test system: patients
Conditions: anesthetic induction doses; cited from earlier work

In the case of CC(C)c1cccc(C(C)C)c1O [propofol, 2,6-diisopropylphenol], the “patients with respiratory consequences, including reduction in tidal volume and apnea” value is given as “up to 83%”.
